Assay [1] can be described thus: DRUGMATRIX: ATPase, Na+/K+ enzyme inhibition (substrate: ATP). It counts as tissue-based, Sus scrofa, Heart. To be noted: Not Active = under 50% inhibition at 10 µM.
Assay [2] is described as follows: DRUGMATRIX: Glutamate, NMDA, Agonism radioligand binding (ligand: [3H] CGP-39653). To be noted: Not Active = under 50% inhibition at 10 µM. It counts as cell membranes, Rattus norvegicus, Wistar, Cerebral cortex, Membrane.
The nature of assay [3]: DRUGMATRIX: GABAA, Flunitrazepam, Central radioligand binding (ligand: [3H] Flunitrazepam). The settings on record: Not Active = under 50% inhibition at 10 µM. The assay is classed as cell membranes, Rattus norvegicus, Wistar, Brain, Membrane.
For assay [4], the target named is T1, Muscarinic acetylcholine receptor M2 (Homo sapiens, UniProt P08172). Also: in other assays of this panel Not Active means under 50% inhibition at 10 µM.
T1 sequence (P08172 whole entry): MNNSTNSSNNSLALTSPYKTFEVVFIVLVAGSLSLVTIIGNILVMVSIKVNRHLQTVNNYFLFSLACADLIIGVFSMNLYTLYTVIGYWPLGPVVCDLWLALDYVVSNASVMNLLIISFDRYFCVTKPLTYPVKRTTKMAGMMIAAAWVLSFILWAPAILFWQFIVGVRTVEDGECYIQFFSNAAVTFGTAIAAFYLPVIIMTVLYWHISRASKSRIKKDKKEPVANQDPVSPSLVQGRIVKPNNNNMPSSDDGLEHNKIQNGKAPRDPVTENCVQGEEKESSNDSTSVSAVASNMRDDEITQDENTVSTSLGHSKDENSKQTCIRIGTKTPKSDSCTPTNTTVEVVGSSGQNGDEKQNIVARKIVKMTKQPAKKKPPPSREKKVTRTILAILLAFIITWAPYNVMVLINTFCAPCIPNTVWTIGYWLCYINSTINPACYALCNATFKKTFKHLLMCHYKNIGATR
The assay is classed as cell membranes, CHO-K1, Membrane.

Assay [5] deals with T2, Cholecystokinin receptor type A (Homo sapiens, UniProt P32238).
T2 sequence (P32238 whole entry): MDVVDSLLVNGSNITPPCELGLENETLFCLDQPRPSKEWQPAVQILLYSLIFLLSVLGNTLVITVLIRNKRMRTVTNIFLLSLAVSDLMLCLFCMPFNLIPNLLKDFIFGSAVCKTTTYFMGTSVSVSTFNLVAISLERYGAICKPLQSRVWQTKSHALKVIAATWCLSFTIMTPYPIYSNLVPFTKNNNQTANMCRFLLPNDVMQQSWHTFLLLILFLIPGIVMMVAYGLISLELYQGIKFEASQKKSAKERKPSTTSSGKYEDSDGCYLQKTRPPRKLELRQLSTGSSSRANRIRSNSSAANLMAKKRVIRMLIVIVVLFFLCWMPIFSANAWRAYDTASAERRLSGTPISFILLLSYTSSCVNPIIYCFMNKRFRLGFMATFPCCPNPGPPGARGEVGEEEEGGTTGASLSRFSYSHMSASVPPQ
It counts as cell membranes, Membrane. The settings on record: 1321-n1.

The target in assay [6] is Glycine receptor (Rattus norvegicus, UniProt P22771+P24524+P07727+P20781). The assay is classed as cell membranes, Wistar, Spinal cord, Membrane. Also: in other assays of this panel Not Active means under 50% inhibition at 10 µM.
A short description of assay [7]: DRUGMATRIX: Sigma2 radioligand binding (ligand: [3H] Ifenprodil). The assay is classed as cell membranes, Rattus norvegicus, Wistar, Brain, Membrane. The settings on record: Not Active = under 50% inhibition at 10 µM.

By IC50 is commonly meant the concentration at which inhibition is half-maximal. What is called Ki is a measure of affinity in units of concentration, obtained from inhibition or displacement. Turning to `CC1(C)O[C@@H]2C[C@H]3[C@@H]4C[C@H](F)C5=CC(=O)C=C[C@]5(C)[C@H]4[C@@H](O)C[C@]3(C)[C@]2(C(=O)CO)O1` [FLUNISOLIDE], the IC50 result in assay [1], in assay [2], in assay [3], in assay [4] (cho-k1), in assay [5] and in assay [6] was “Not Active” throughout. In assay [7], the IC50 entry is on record as “Not Active”. For the same compound, the Ki entry in assay [1], in assay [2], in assay [3] and in assay [7] was “Not Active” throughout.

Consider `CC1(C)O[C@@H]2C[C@H]3[C@@H]4C[C@H](F)C5=CC(=O)C=C[C@]5(C)[C@@]4(F)[C@@H](O)C[C@]3(C)[C@]2(C(=O)CO)O1` [FLUOCINOLONE ACETONIDE], for which the IC50 entry in assay [1], in assay [2], in assay [3], in assay [4] (cho-k1), in assay [5] and in assay [6] was “Not Active” each time. Also, the IC50 result in assay [7] is “Not Active”. For the same compound, the Ki result in assay [1], in assay [2], in assay [3] and in assay [7] was “Not Active” throughout.

Consider `CC1(C)O[C@@H]2C[C@H]3[C@@H]4C[C@H](F)C5=CC(=O)CC[C@]5(C)[C@H]4[C@@H](O)C[C@]3(C)[C@]2(C(=O)CO)O1` [FLURANDRENOLIDE], for which the IC50 result in assay [1], in assay [2], in assay [3], in assay [4] (cho-k1), in assay [5] and in assay [6] was “Not Active” in each case. Further, the IC50 entry in assay [7] is reported as “Not Active”. Besides, the Ki result in assay [1], in assay [2], in assay [3] and in assay [7] was “Not Active” each time.

As to `CN(C)c1ccc(C(=C2C=CC(=[N+](C)C)C=C2)c2ccc(N(C)C)cc2)cc1.[Cl-]` [GENTIAN VIOLET], the half-maximal inhibitory concentration (IC50) entry in assay [1] is “Not Active”; in assay [2], “Not Active”; in assay [3] it was “Not Active”; in assay [4] (read-out: IC50), 1430 nM; in assay [5], “Not Active”; in assay [6], “Not Active”. Further, the IC50 entry in assay [7] is “Not Active”. Further, the Ki entry in assay [1] was “Not Active”; in assay [2] it was “Not Active”; in assay [3], “Not Active”; in assay [4] (read-out: Ki), 508 nM; in assay [7], “Not Active”.

Take `Cc1ccc(S(=O)(=O)NC(=O)NN2CC3CCCC3C2)cc1` (configuration not stated) [GLICLAZIDE]: the IC50 entry in assay [1], in assay [2], in assay [3], in assay [4] (cho-k1), in assay [5] and in assay [6] was “Not Active” each time. The IC50 result in assay [7] is on record as “Not Active”. The Ki result in assay [1], in assay [2], in assay [3] and in assay [7] was “Not Active” each time.

With `NC(=O)NO` [HYDROXYUREA], the IC50 result in assay [1], in assay [2], in assay [3], in assay [4] (cho-k1), in assay [5] and in assay [6] was “Not Active” each time. In assay [7], the IC50 entry is given as “Not Active”. The Ki result in assay [1], in assay [2], in assay [3] and in assay [7] was “Not Active” in each case.

For `CC(C)Cc1ccc(C(C)C(=O)O)cc1` (configuration not stated) [IBUPROFEN], the IC50 entry in assay [1], in assay [2], in assay [3], in assay [4] (cho-k1), in assay [5] and in assay [6] was “Not Active” in each case. Besides, in assay [7], the IC50 result is reported as “Not Active”. Also, the Ki result in assay [1], in assay [2], in assay [3] and in assay [7] was “Not Active” in each case.

Regarding `COc1ccc2c(c1)c(CC(=O)O)c(C)n2C(=O)c1ccc(Cl)cc1` [INDOMETHACIN], the IC50 entry in assay [1], in assay [2], in assay [3], in assay [4] (cho-k1), in assay [5] and in assay [6] was “Not Active” throughout. In assay [7], the IC50 entry is recorded as “Not Active”. Also, the Ki entry in assay [1], in assay [2], in assay [3] and in assay [7] was “Not Active” in each case.

Take `CCc1c2c(nc3ccc(OC(=O)N4CCC(N5CCCCC5)CC4)cc13)-c1cc3c(c(=O)n1C2)COC(=O)[C@]3(O)CC` [IRINOTECAN]: the IC50 entry in assay [1], in assay [2], in assay [3], in assay [4] (cho-k1), in assay [5] and in assay [6] was “Not Active” each time. In addition, in assay [7], the half-maximal inhibitory concentration (IC50) entry is reported as “Not Active”. Further, the Ki result in assay [1], in assay [2], in assay [3] and in assay [7] was “Not Active” in each case.

As for `CC(C(=O)O)c1cccc(C(=O)c2ccccc2)c1` (configuration not stated) [KETOPROFEN], the IC50 result in assay [1], in assay [2], in assay [3], in assay [4] (cho-k1), in assay [5] and in assay [6] was “Not Active” in each case. Moreover, the IC50 entry in assay [7] is on record as “Not Active”. Further, the Ki entry in assay [1], in assay [2], in assay [3] and in assay [7] was “Not Active” in each case.

`Nc1ccn([C@@H]2CS[C@H](CO)O2)c(=O)n1` [LAMIVUDINE]: the IC50 entry in assay [1], in assay [2], in assay [3], in assay [4] (cho-k1), in assay [5] and in assay [6] was “Not Active” throughout. The IC50 entry in assay [7] is recorded as “Not Active”. Moreover, the Ki entry in assay [1], in assay [2], in assay [3] and in assay [7] was “Not Active” each time.

Take `O=S(=O)([O-])CCS.[Na+]` [MESNA]: the IC50 result in assay [1], in assay [2], in assay [3], in assay [4] (cho-k1), in assay [5] and in assay [6] was “Not Active” in each case. Moreover, the IC50 result in assay [7] is recorded as “Not Active”. Besides, the Ki entry in assay [1], in assay [2], in assay [3] and in assay [7] was “Not Active” in each case.

Turning to `C#C[C@]1(O)CC[C@H]2[C@@H]3CCc4cc(OC)ccc4[C@H]3CC[C@@]21C` [MESTRANOL], the IC50 result in assay [1], in assay [2], in assay [3], in assay [4] (cho-k1), in assay [5] and in assay [6] was “Not Active” throughout. In addition, in assay [7], the 50% inhibitory concentration (IC50) result is given as “Not Active”. The inhibitory constant (Ki) result in assay [1], in assay [2], in assay [3] and in assay [7] was “Not Active” in each case.

With `CC(=O)Nc1cccc(O)c1` [METACETAMOL], the IC50 result in assay [1], in assay [2], in assay [3], in assay [4] (cho-k1), in assay [5] and in assay [6] was “Not Active” throughout. For the same compound, in assay [7], the IC50 result is on record as “Not Active”. Also, the Ki entry in assay [1], in assay [2], in assay [3] and in assay [7] was “Not Active” in each case.

`Cc1ncc([N+](=O)[O-])n1CCO` [METRONIDAZOLE]: the IC50 entry in assay [1], in assay [2], in assay [3], in assay [4] (cho-k1), in assay [5] and in assay [6] was “Not Active” each time. The 50% inhibitory concentration (IC50) entry in assay [7] is listed as “Not Active”. Moreover, the Ki result in assay [1], in assay [2], in assay [3] and in assay [7] was “Not Active” in each case.

For the compound `CC(C)(C(=O)c1cccnc1)c1cccnc1` [METYRAPONE], the IC50 result in assay [1], in assay [2], in assay [3], in assay [4] (cho-k1), in assay [5] and in assay [6] was “Not Active” throughout. Moreover, the IC50 result in assay [7] is “Not Active”. In addition, the Ki entry in assay [1], in assay [2], in assay [3] and in assay [7] was “Not Active” each time.

The values are drawn from ChEMBL document CHEMBL1909046, “DrugMatrix in vitro pharmacology data”.
